{
  "source": "patent US20180311244A1",
  "about": "“METHODS OF TREATING LIVER DISEASE” (Gilead Sciences, Inc., priority 2017, published 2018)",
  "key": {"subjects with NASH": {"system": "subjects with NASH", "experiment": "12-week study of ASK1 inhibitor, ACC inhibitor and combination in subjects with NASH", "type": "in vivo, human", "description": "Centrally-read PDFF and MRE, and serum fibrosis markers were measured at baseline (BL), W4 and W12. Deuterated water was administered to measure fractional synthesis of lipids (de novo lipogenesis [DNL])."}, "[1]": {"system": "rodent model of non-alcoholic steatohepatitis (NASH)", "experiment": "Picrosirius Red staining of liver in CDHFD rat NASH model", "type": "in vivo", "conditions": "CDHFD rats, 12 weeks; ASK1i 0.03% in chow, Formula (III) 10 mg/kg QD PO; FIG. 7", "description": "The following study was conducted to evaluate the efficacy of the combination of an ASK1 inhibitor (ASK1i) and an ACC inhibitor (ACCi) in a rodent model of non-alcoholic steatohepatitis (NASH) relative to the efficacy of the individual agents alone in the model. In this model, NASH was induced in male Wistar rats by administration of a choline-deficient high fat diet (CDHFD).\nMale Wistar (Crl:Wi(Han)) rats (aged 8-9 weeks at arrival) were acquired from Charles River, Raleigh, N.C. and used in the current studies. This study complie with all applicable sections of the Final Rules of the Animal Welfare Act regulations (Code of Federal Regulations, Title 9), the Public Health Service Policy on Humane Care and Use of Laboratory Animals from the Office of Laboratory Animal Welfare, and the Guide for the Care and Use of Laboratory Animals from the National Research Council. […]\nWhole slide images of Picrosirius Red (PSR) stained slides were captured using a Leica AT2 scanner at 40× magnification. […] Quantitative image analysis was performed on the whole slide images using Visiopharm image analysis software (Visiopharm, Hoersholm, Denmark) to determine the extent and intensity of PSR. The total PSR-stained area was measured and expressed as a percentage of total liver area stained."}, "[2]": {"conditions": "W12, orally QD, Formula (II) 18 mg, Formula (IV) 20 mg, combination 18/20 mg"}, "[3]": {"conditions": "serum, W12, orally QD, Formula (II) 18 mg, Formula (IV) 20 mg, combination 18/20 mg"}},
  "note": "Marks after values point to notes of the source that are not given here.",
  "data": [
    {"smiles": "COc1ccccc1[C@H](Cn1c(=O)n(C(C)(C)C(=O)O)c(=O)c2c(C)c(-c3ncco3)sc21)OC1CCOCC1", "note": "[Formula (IV)]", "values": [
      {"measurement": "PDFF compared with BL (in words)", "setting": "subjects with NASH; 12 weeks orally QD, Formula (IV) p=0.006, combination p<0.001", "result": "significant improvements"},
      {"measurement": "ALT compared with BL (in words)", "setting": "subjects with NASH; 12 weeks orally QD, combination p=0.019", "result": "non-significant reductions"},
      {"measurement": "PIII-NP compared with BL (in words)", "setting": "subjects with NASH; 12 weeks orally QD, combination p=0.057", "result": "non-significant reductions"},
      {"measurement": "TIMP-1 compared with BL (in words)", "setting": "subjects with NASH; 12 weeks orally QD, p=0.049", "result": "significant improvements"},
      {"measurement": "Grade 2 or higher AE, % of subjects", "setting": "subjects with NASH; 12 weeks, orally QD, Formula (II) 18 mg, Formula (IV) 20 mg, combination 18/20 mg", "result": 40, "unit": "%"},
      {"measurement": "ALT, median relative (%) change from BL", "setting": "subjects with NASH; [2]", "result": "−33.5", "unit": "%"},
      {"measurement": "GGT, median relative (%) change from BL", "setting": "subjects with NASH; [2]", "result": "−1.6", "unit": "%"},
      {"measurement": "MRE, median relative (%) change from BL", "setting": "subjects with NASH; [2]", "result": "−8.9", "unit": "%"},
      {"measurement": "MRI-PDFF, median relative (%) change from BL", "setting": "subjects with NASH; [2]", "result": "−42.7* %"},
      {"measurement": "≥30% reduction in MRI-PDFF, % of subjects", "setting": "subjects with NASH; [2]", "result": 70, "unit": "%"},
      {"measurement": "PIII-NP, median relative (%) change from BL", "setting": "subjects with NASH; [3]", "result": "−11.9", "unit": "%"},
      {"measurement": "TIMP-1, median relative (%) change from BL", "setting": "subjects with NASH; [3]", "result": "−11.6* %"}
    ]},
    {"smiles": "COc1ccccc1[C@H](Cn1c(=O)n(C(C)(C)C(=O)O)c(=O)c2c(C)c(-c3ncco3)sc21)O[C@H]1CC[C@@H](O)CC1", "note": "[Formula (III)]", "values": [
      {"measurement": "Reduction of hepatic PSR (% area)", "setting": "[1]", "result": 50, "unit": "%"}
    ]}
  ]
}
